For series [1], the system named is SH-SY5Y human neuroblastoma cells. Briefly: Protection against hydrogen peroxide-induced cell death (LDH). Format: cell-based. The following applies: compound 1 h before H2O2 100 μM during 24 h. The protocol: The aim of this assay is to determine the neuroprotective effect of the compounds of formula (I), when human neuroblastoma cells are exposed to oxidative stress induced by hydrogen peroxide, which is highly deleterious to the cell and its accumulation causes oxidation of cellular targets such as DNA, proteins, and lipids leading to mutagenesis and cell death.
SH-SY5Y human neuroblastoma cells are seeded into 96-well culture plate at a density of 10^4 cells/well. Cells are exposed to different concentrations of the compound one hour before the treatment with H2O2 100 μM during 24 h. 5 mM N-acetylcysteine (NAC), a known anti-oxidant agent was used as a positive control, and preincubated 1 hour before the treatment with H2O2. After 24 h, the medium is removed and cells attached to the bottom of the well are lysed by adding 50 μl of Triton X-100 1% in Krebs-Hepes during 5 minutes at room temperature. For LDH release quantification, Roche cytotoxicity detection kit (Cat. No. 11 644 793 001) was used.

Series [2] has the same test system. Briefly: Protection against 6-OHDA-induced cell death (LDH). It is filed as cell-based. As to conditions: preincubated 2 hours before 6-OHDA 75 μM during 16 hours, 10% Foetal bovine serum. The source says:
The aim of this experiment is to determine the protective effect of the compounds of formula (I) against the toxicity caused by 6-OHDA. This toxin induces a cell death similar to which occurs in Parkinson's disease, destroying dopaminergic neurons (“MPTP and 6-hydroxydopamine-induced neurodegeneration as models for Parkinson's disease: neuroprotective strategies”; Grunblatt E, et al.; J Neurol. 2000 April; 247 Suppl 2:II95-102).
Two or three days before the experiment, the SH-SY5Y human neuroblastoma cells are seeded into 96-well culture plate at a density of 10^4 cells/well. Cells are exposed to the treatment with 6-OHDA and, finally, cell death is measured by LDH quantification. As positive control we used NAC.
NAC and the compound of formula (I) are preincubated during 2 hours before the treatment with 6-OHDA 75 μM during 16 hours. The assay is performed in medium containing 10% Foetal bovine serum.
For each compound the minimum concentration of compound of formula (I) at which a neuroprotective effect is shown.

In series [3] the test system is Aβ (1-40) secretion, CHO7W (stably transfected with human APP751 wt cDNA). Briefly: Inhibition of Aβ(1-40) secretion (ELISA of cellular supernatants). It is filed as cell-based. As to conditions: CHO7W cells, Aβ(1-40) in supernatants. From the text:
To quantitate Aβ secretion ELISA-based method was used. The assay consists in detection of antigen by selective monoclonal anti-Aβ-antibodies at two different epitopes forming a “Sandwich-complex”, that is detected by colorimetric measure due to the binding of a secondary antibody conjugated with peroxidase that catalyses the conversion of a substrate or chromogen, TMB, into a coloured product, directly proportional to the peptide quantity in the sample. The Aβ production has been analyzed by ELISA, using a colorimetric commercial kit: H-amuloid b-30 ELISA (The Genetics Company).
Aβ (1-40) were quantified from cellular supernatants. An APP-transfected cell line has been employed for the experiments: CHO7W (stably transfected with human APP751 wt cDNA). The cells were grown in a culture medium consisting of DMEM supplemented with 2% Fetal bovine serum, 1% penicillin-streptomycin, 1% L-glutamine and 200 μg/ml G418. Cells are seeded in 96-well culture microplate, at 5000 cells/well and treatment with different compounds at different concentrations is performed 24 hour after seeding.
Background: ELISA stands for enzyme-linked immunosorbent assay.

Series [4] relates to SH-SY5Y human neuroblastoma cells. Description: Toxicity: cell viability by LDH activity release. Format: cell-based. As to conditions: 24 h. As for the experimental part:
The potential effects on cell viability of the tested compounds were assessed in SH-SY5Y human neuroblastoma cells, by quantification of Lactate dehydrogenase (LDH) activity release. SH-SY5Y human neuroblastoma cells were seeded into 96-well culture plates at 10^4 cells/well. The medium was then removed and the cells incubated with different concentrations of the compounds during 24 h. […] After 24 h, the medium was removed and cells attached to the bottom of the well were lysed by adding 50 μl of Krebs-Hepes; Triton X-100 1% during 5 minutes at room temperature. For LDH release quantification, the Roche cytotoxicity detection kit (Cat. No. 11 644 793 001) was used. The LDH activity was measured by its absorbance at 492 nm with reference wavelength 620 nm.
In Table 2, for each compound the maximum concentration at which cell viability was tested is indicated in the second column. In the third column, it is indicated whether at this maximum concentration the compound affected or not cell viability (>20% of cell death).

Series [5] concerns SH-SY5Y cells. Description: Neuroprotection against Aβ25-35 toxicity (LDH). Format: cell-based, human. As to conditions: pre-treated 1 hour, then 24 hours 200 μM Aβ25-35. As for the experimental part:
In order to evaluate potential neuroprotection of compounds, SH-SY5Y cells, cultured in 96-well plates, were pre-treated for 1 hour with the compound at different concentrations and then exposed 24 hours to 200 μM Aβ25-35 (Neosystem) to induce extensive oxidative stress and cell death. The ability of the compound of protecting against this toxicity is then evaluated by measuring intracellular LDH, using the colorimetric LDH assay.
It is widely accepted that the neurotoxic activity of Aβ resides within amino acids 25-35 (see e.g. Yankner B A et al., (1990) Neurotrophic and neurotoxic effects of amyloid β protein: reversal by tachykinin neuropeptides; Science 250:279-282).

Setting [6] is: maximum concentration tested 100 μM.
Where [7] appears, read: maximum concentration tested 1000 μM.

These results are taken from patent US20110306631A1, “TRIPLE SUBSTITUTED PHENANTHROLINE DERIVATIVES FOR THE TREATMENT OF NEURODEGENERATIVE OR HAEMATOLOGICAL DISEASES OR CONDITIONS, OR CANCER” (NOSCIRA, S.A., priority 2008, published 2011).

For the molecule `COc1cc2cccnc2c2nc(/C=N/O)cc(SC)c12` [A, 5-methoxy-4-methylsulfanyl-[1,10]-phenanthroline-2-carbaldehyde oxime], in series [1], the “Protect H2O2 (minimum concentration for which protection against H2O2 was determined)” value (from here on “Protect H2O2”) was found to be 0.05 µM. The “Protection 6-OHDA (minimum concentration at which a neuroprotective effect is shown)” value (“Protection 6-OHDA” for short) in series [2] was 0.05 µM. The “inhibition Aβ secretion (minimum concentration at which the compound inhibits beta-amyloid secretion)” value (“inhibition Aβ secretion” below) in series [3] was determined as 0.1 µM. Besides, the “Yes/No: compound affected cell viability at maximum concentration tested” value (“Yes/No: compound affected cell viability” below) in series [4] (setting [6]) is “Y (affected or not cell viability (>20% of cell death))”. Moreover, the “Protection β-Amiloyd (minimum concentration showing neuroprotection against Aβ25-35 toxicity)” value (from here on “Protection β-Amiloyd”) in series [5] was found to be 5 µM.
As to `COc1cc(/C=N/O)nc2c1c(F)cc1cccnc12` [B, 5-fluoro-4-methoxy-[1,10]-phenanthroline-2-carbaldehyde oxime], the “Protect H2O2” value in series [1] is 0.05 µM. In addition, the “Protection 6-OHDA” value in series [2] stood at 0.05 µM. The “inhibition Aβ secretion” value in series [3] amounted to 1 µM. The “Yes/No: compound affected cell viability” value in series [4] (setting [7]) is listed as “N (affected or not cell viability (>20% of cell death))”. In addition, in series [5], the “Protection β-Amiloyd” value came to 5 µM.
For `COCCOc1cc2cccnc2c2nc(/C=N/O)cc(OC)c12` [C, 4-methoxy-5-(2-methoxy-ethoxy)-[1,10]-phenanthroline-2-carbaldehyde oxime], the “Protect H2O2” value in series [1] was 0.005 µM. For the same molecule, the “Protection 6-OHDA” value in series [2] turned out to be 0.5 µM. In addition, the “inhibition Aβ secretion” value in series [3] is 0.1 µM. For the same molecule, in series [4] (setting [7]), the “Yes/No: compound affected cell viability” value is reported as “N (affected or not cell viability (>20% of cell death))”. Moreover, the “Protection β-Amiloyd” value in series [5] was determined as 5 µM.
The matching figures for `CSc1cc(/C=N/O)nc2c1c(C)cc1cccnc12` [D, 5-methyl-4-methylsulfanyl-[1,10]phenanthroline-2-carbaldehyde oxime]: 0.5 µM, 0.05 µM, 1 µM, “N (affected or not cell viability (>20% of cell death))” and 0.5 µM.
On to `COc1cc2c(SC)cc(/C=N/O)nc2c2ncccc12` [E, 6-methoxy-4-methylsulfanyl-[1,10]phenanthroline-2-carbaldehyde oxyme], for which the “Protect H2O2” value in series [1] worked out at 0.05 µM. Moreover, the “Protection 6-OHDA” value in series [2] came out at 0.5 µM. Further, in series [3], the “inhibition Aβ secretion” value was found to be 10 µM. In addition, the “Yes/No: compound affected cell viability” value in series [4] (setting [6]) is reported as “Y (affected or not cell viability (>20% of cell death))”. Moreover, the “Protection β-Amiloyd” value in series [5] came to 10 µM.
`COc1cc2c(=O)cc(/C=N/O)[nH]c2c2ncccc12` [F, 6-methoxy-4-oxo-1,4-dihydro-[1,10]phenanthroline-2-carbaldehyde oxime]: the “Protection 6-OHDA” value in series [2] was 10 µM. In addition, in series [4] (setting [7]), the “Yes/No: compound affected cell viability” value is listed as “N (affected or not cell viability (>20% of cell death))”.
